In patent US20050249808A1, “NSAIDs compositions containing tartaric acid” (priority 2001, published 2005):
Like-named read-outs stand apart in the source and are kept apart here. Blank lines part the entries; values can stand above or below the compound they belong to.

Key:
[1] = cited from earlier work; for AUC0-2h: 600 mg ibuprofen dose
[2] = parts of drug dissolving in 10,000 parts of water; cited from earlier work
[3] = Oral bioavailability of ibuprofen crushed tablets in control rats; assay type: in vivo; details: male, Sprague-Dawley, rat, plasma, 20 mg/kg, oral 20 mg/kg ibuprofen as crushed tablets, read-out: AUC (0-8)
Procedure: The animal models are Adult male Sprague-Dawley rats with body weight of 250-300 g, and which were cared for in accordance with the principles and guidelines of the Canadian Council of Animal Care. All rats were catheterized in the right jugular vein for sample collection.
The tablets were crushed gently and small pieces were administered into the stomach via a plastic tube followed by 0.5 mL tap water. […] They had free access to water.

Compound: CC(C)Cc1ccc([C@H](C)C(=O)O)cc1 [S-ibuprofen, S(+)-2-(4-isobutylphenyl)propionic acid]
AUC0-2h ([1]; after dental extraction): 7.2 ± 5.5 µg·h/mL | AUC0-2h ([1]; before dental extraction): 14.2 ± 6.1 µg·h/mL

Compound: CC(C)Cc1ccc([C@@H](C)C(=O)O)cc1 [R-ibuprofen, R(−)-2-(4-isobutylphenyl)propionic acid]
AUC0-2h ([1]; after dental extraction): 5.8 ± 7.1 µg·h/mL | AUC0-2h ([1]; before dental extraction): 14.4 ± 9.5 µg·h/mL

AUC(0-t) [3]: 139 µg·h/mL
Compound: CC(C)Cc1ccc(C(C)C(=O)O)cc1 (racemic) [ibuprofen, (±)-2-(4-Isobutylphenyl)propionic acid]
solubility in water [2]: less than 1 part | change in mean time to peak concentration caused by surgery ([1]; 200 mg and 600 mg doses, dental surgery): two hour delay | AUC0-6h, effect of surgery ([1]; dental surgery): significantly reduced
